The numbers were not newly measured in publication PMC11451938 (RSC Medicinal Chemistry, 2024), which cites them from elsewhere.

The data set deals with hNTS1. As to conditions: read-out: NTS1 Ki; CHO-K1 cells expressing hNTS1.

For the substance “JMV 438: NT[8-13] in which the Arg8-Arg9 fragment was replaced with Lys8-Lys9”, the Ki was 4 nM.

As usually defined, the Ki is a measure of affinity in units of concentration, obtained from inhibition or displacement.
